From PubChem BioAssay (NCI)
Several values for one entry are separate records, joined by “and”; a condition that tells them apart may be missing. Equal values may be shown once.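 These data come from cells grown in 96-well plates and exposed to compound for 48 hours at five concentrations. GI50 marks 50% less growth. The concentration for full growth arrest is given as TGI.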

Legend:
Assay in all cases: NCI anticancer screen, dose series, 48 h
786-0 renal = test system: 786-0 renal
A549 NSCLC = test system: A549 NSCLC
HOP-92 NSCLC = test system: HOP-92 NSCLC
K-562 leukemia = test system: K-562 leukemia
NCI-H460 lung = test system: NCI-H460 lung
RPMI-8226 leukemia = test system: RPMI-8226 leukemia
SF-268 CNS = test system: SF-268 CNS
SF-295 CNS = test system: SF-295 CNS
SNB-19 CNS = test system: SNB-19 CNS
SW-620 colon = test system: SW-620 colon

Row | Structure (SMILES) | GI50 (786-0 renal) [µM] | TGI (786-0 renal) [µM] | GI50 (A549 NSCLC) [µM] | TGI (A549 NSCLC) [µM] | GI50 (HOP-92 NSCLC) [µM] | TGI (HOP-92 NSCLC) [µM] | GI50 (K-562 leukemia) [µM] | TGI (K-562 leukemia) [µM] | GI50 (NCI-H460 lung) [µM] | TGI (NCI-H460 lung) [µM] | GI50 (RPMI-8226 leukemia) [µM] | TGI (RPMI-8226 leukemia) [µM] | GI50 (SF-268 CNS) [µM] | TGI (SF-268 CNS) [µM] | GI50 (SF-295 CNS) | TGI (SF-295 CNS) [µM] | GI50 (SNB-19 CNS) [µM] | TGI (SNB-19 CNS) [µM] | GI50 (SW-620 colon) [µM] | TGI (SW-620 colon) [µM]
1 | CN1CCN(C(=O)c2cc(-c3ccc4ncnc(N5CCc6cc(F)c(Cl)cc65)c4c3)cnc2N)CC1 | 0.22 | 1.73 | 0.194 | 1.8 | 0.154 | 1.08 | 0.234 | 11.7 | 0.224 | 9.14 | 0.124 | 0.557 | 0.216 | 2.32 | 0.288 µM | 1.84 | 0.413 | 10.5 | 0.315 | 1.82
2 | COc1ccc(-c2[nH]c3ccccc3c2-c2ccc(OC)cc2)cc1 | 2.95 | 7.64 | 7.14 | 30.3 | 2.24 | 9.4 | 2.89 | 10.4 | 3.65 | 14 | 3.27 | 69.5 | 3.99 | 15.1 | 3.33 µM | 14 | 5.06 | 20.6 | 4.53 | 36.8
3 | CC(C)NCCCn1c(Sc2cc3c(cc2I)OCO3)nc2c(N)ncnc21 | 0.515 | > 100 | 0.0872 | > 86.6 | 0.289 | 1.62 | 0.0708 | > 100 | 0.0576 | > 100 | 1.53 | > 47.7 | 2.1 | > 100 | 0.143 µM | 8.52 | 0.646 | > 100 | 0.0592 | > 100
4 | COC1C=COC2(C)Oc3c(C)c(O)c4c(c3C2=O)/C(=N/C2CCC(O)OC2C)C=C(NC(=O)/C(C)=C\C(=O)C2CC2C(O)C(C)C(O)C(C)C(OC(C)=O)C1C)C4=O (stereo unspecified) |  | 3.13 |  | 11.4 |  | 5.29 |  | 6.3 |  | 11.5 |  | 5.74 |  | 10.5 |  | 13.3 |  | 11.6 |  | 4.91
5 | Fc1ccc(C2SCc3nc4ccccc4n32)c(F)c1 (stereo unspecified) |  | > 100 |  | > 100 |  | 92.4 |  | > 100 |  | > 100 |  | > 100 |  | > 100 |  | > 100 |  | > 100 |  | > 100
6 | COc1ccc(-c2cc(-c3ccc(C)cc3)nc3nc(=S)[nH]c(N)c23)cc1 | 22.4 | 52.6 | 24.3 | > 100 | 15.5 | 75.5 | 15.1 | 36.5 | 12 | 27.5 | 18.4 | 44.4 | 17.5 | 35.5 | 15.9 µM | 34.9 | 37.6 | > 100 | 17.9 | 33.9
7 | C[C@@H]1CN(Cc2ccc(F)cc2)[C@@H](C)CN1C(=O)c1cc2c(C(=O)C(=O)N(C)C)cn(C)c2cc1Cl | 21.2 | 67.1 | 24 | > 92.4 | 19.4 | 56.5 | 20.8 | 88.6 | 16.8 | 37.4 | 16.7 | 51.9 | 18.5 | 46.1 | 14.9 µM | 36.7 | 17.4 | 64.1 | 24 | > 84.9
8 | COc1cc2c(cc1OCCCn1c(-c3ccccn3)nc3ccccc31)N=C[C@@H]1CCCN1C2=O | 2.76 | 10.9 | 1.87 | 7.08 | 3.87 | 26.6 | 12.2 | > 55.3 | 1.88 | 4.34 | 8.8 | > 20.8 | 3.07 | 9.79 | 4.05 µM | 49.7 | 3.61 | 18.1 | 2.47 | 8.33
9 | O=C(/C=C/c1ccccc1)CCN1CCOCC1 |  | 18.8 |  | 56.8 |  | 38.1 |  | 12.6 |  | 35.8 |  | 7.54 |  | 38.3 |  | 38.8 |  | 39.9 |  | 16.5
10 | COc1ccc(C=O)c([N+](=O)[O-])c1 |  | > 100 |  | > 100 |  | > 100 |  | 36 |  | > 100 |  | > 100 |  | > 100 |  | 64.9 |  | > 100 |  | > 100
11 | O=c1[nH]c(=O)n(C2CC(O)C(COP(=O)(OCc3ccc([N+](=O)[O-])o3)N(CCCCCl)CC(O)CO)O2)cc1F (stereo unspecified) | 0.624 | > 100 | < 0.01 | > 100 | 0.156 |  | 3.14 | > 100 | < 0.0474 | > 100 | < 0.01 | > 49.8 |  | > 100 | 0.295 µM | > 25.1 | > 20.3 | > 100 | 0.0447 | > 100
12 | CC#CCC1CCC(OCC)=CC1=O (stereo unspecified) |  | > 100 |  | > 100 |  | > 100 |  | > 100 |  | > 100 |  | > 100 |  | > 100 |  | > 100 |  | > 100 |  | > 100
13 | CC(=O)NC(CCCNC(=O)N(CCCl)N=O)C(=O)NCc1ccccc1 (stereo unspecified) |  | > 100 |  | > 100 |  | > 100 |  | > 100 |  | > 100 |  | > 100 |  | > 100 |  | > 100 |  | > 100 |  | > 100
14 | O=C(O)c1ccc(C(=O)c2ccccc2)c(C(=O)O)c1 |  | > 100 |  | > 100 |  | > 100 |  | > 100 |  | > 100 |  | > 100 |  | > 100 |  | > 100 |  | > 100 |  | > 100
15 | Cc1ccc(-c2nnc(-c3nn(-c4ccccc4)c4nc5ccccc5nc34)o2)cc1 |  | 21.6 |  | 41.4 |  | 20.9 |  | 61.9 |  | 41.6 |  | > 100 |  | 38.4 |  | 36.8 |  | 76 |  | > 100
16 | CN[C@@H](C)C(=O)N[C@H](C(=O)N1CCC[C@H]1C(=O)Nc1sc(-c2ncco2)nc1-c1ccccc1)C1CCCCC1 | 28.2 | > 67.2 | 80.5 | > 100 | 3.52 | 13.4 | 24.7 | 63.6 | 37.7 | > 100 | 25.1 | > 89.9 | 99.7 | > 100 | 52.9 µM | > 100 | 30 | 98.7 | 78.4 | > 100
17 | O=C1NC(=O)C(N2C(=O)c3ccccc3C2=O)CC1O (stereo unspecified) | > 100 | > 100 | > 100 | > 100 | > 100 | > 100 | > 100 | > 100 | > 100 | > 100 | > 100 | > 100 | > 100 | > 100 | > 100 µM | > 100 | > 100 | > 100 | > 100 | > 100
18 | NC(=O)c1csc(C2OC(CO)C(O)C2O)n1 (stereo unspecified) | 15.5 | 3460 | 130 | > 10000 |  | 1300 | 8.88 | 7060 |  | > 10000 | > 20.1 | 8150 | 96.1 | 9040 | > 43.9 µM and 13.6 µM | > 8180 | 65.7 | 7290 | 30.6 | 5900
19 | O=C1OC(Cc2ccccc2)(N2CCCC2=O)C1c1ccccc1 (stereo unspecified) |  | > 100 |  | > 100 |  | > 100 |  | > 100 |  | > 100 |  | > 100 |  | > 100 |  | > 100 |  | > 100 |  | > 100
20 | O=C1OCC2=C1C(c1ccc(Cl)c(Cl)c1)c1cc3c(cc1N2CCO)OCCO3 (stereo unspecified) | 0.277 | 7.62 | 0.299 | 11.8 | 0.236 | 8.2 | 0.211 | > 22.6 | 0.192 | 5.77 | 0.405 | 12.9 | 0.261 | 11.6 | 0.151 µM | 2.84 | 0.327 | > 50 | 0.16 | > 50
21 | COc1cc(N2C(=O)[C@H](O)C2c2ccc(SC)cc2)cc(OC)c1OC (stereo partly specified) | < 0.01 | 55.8 | 0.0131 | > 100 | 71.4 | > 100 | < 0.01 | > 100 | < 0.01 | 13.1 | < 0.01 | 14.6 | < 0.01 | 59.3 | < 0.01 µM | 26.1 | < 0.01 | > 100 | < 0.01 | > 100
22 | OCc1ccc(N2CCCC2c2ccccc2)cc1Cl (stereo unspecified) | 11.5 | 28.4 | 2.87 | 14.9 | 2.06 | 9.28 | 2.33 | 10.6 | 0.833 | 7.22 | 4.36 | 23.6 | 13.2 | 49.5 | 2.34 µM | 7.77 | 13.5 | > 84 | 2.8 | 27.7
23 | CCOC(=O)C1C(=S)NC(=O)C1C#N (stereo unspecified) |  | > 100 |  | > 100 |  | > 100 |  | > 100 |  | > 100 |  | > 100 |  | > 100 |  | > 100 |  | > 100 |  | > 100
24 | CC(=O)/C=C/c1cn(C(=O)OC(C)(C)C)c2ccc(Br)cc12 | 11.8 | 25.3 | 18.8 | 52.4 | 13.4 | 35.8 | 18 | > 54 | 17 | 36.4 | 9.41 | > 66.5 | 24.1 | 97.9 | 14.1 µM | 28.8 | 15.4 | 30.1 | 19.1 | 39
25 | O=S(=O)(Nc1cc(Sc2cccc3cccnc23)c(O)c2ccccc12)c1ccc(F)cc1 | 1.19 | 6.85 | 0.538 | 3.17 | 2.02 | 7.08 | 1.37 | 9.52 | 0.59 | 11 | 2.09 | 7.36 | 1.89 | 11.9 | 3.34 µM | 12.8 | 2.55 | 17.1 | 1.41 | 3.86
26 | O=C1NC(=O)C2C(=O)NC(=O)C1C2c1c(Cl)cccc1Cl (stereo unspecified) |  | > 100 |  | > 100 |  | > 100 |  | > 71.7 |  | > 58.2 |  | > 67.2 |  | > 96.7 |  | > 100 |  | > 100 |  | > 47.1
27 | c1cnn2ncc(-c3ccnc(NCCCN4CCOCC4)n3)c2c1 | 8.63 | > 25 | 7.7 | > 25 | 5.08 | 17.4 | > 22.4 | > 25 | 6.56 | > 25 | 6.7 | > 25 | 6.39 | > 23.3 | 5.81 µM | > 20.4 | 8.35 | > 25 | 6.66 | > 25
28 | Fc1ccc(/C=N/n2c(-c3ccc(F)c(Cl)c3)nn(CNc3ccccc3C(F)(F)F)c2=S)cc1 | 75.4 | > 100 | 52.8 | > 100 | 17.6 | 63.8 | 37.6 | > 100 | 43.3 | > 100 | 38.6 | > 100 | > 100 | > 100 | 42.6 µM | > 100 | > 100 | > 100 | 86.2 | > 100
29 | O=C(O)CN1CCN(CC(=O)O)CC(=O)[O][Hg][O]C(=O)C1 | 17.1 | 32.2 | > 100 | > 100 | 20.6 | 37.8 | 17.9 | 44.6 | 19.8 | > 54.2 | 18.2 | 50.5 | 20.7 | 52.6 | > 100 µM | > 100 | 29.8 | > 100 | 19.6 | 52.7
